Columns and labels:
METTL3/METTL14 = METTL3/METTL14 (Homo sapiens, UniProt Q86U44); assay: METTL3-14 standard enzyme assay (3H-SAM flashplate scintillation); assay type: biochemical; conditions: METTL3/METTL14 2.5 nM, RNA 100 nM, 3H-SAM 100 nM, 30 min
Outline: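 Radiometric methylation readout: biotinylated RNA substrate UCUGGACUAAA and 3H-SAM, each 100 nM final, reacted 30 min at ambient temperature with 2.5 nM enzyme complex after 5 min compound preincubation (HEPES pH 7.5 buffer, KCl, MgCl2, DTT). Excess unlabelled SAM (15 μM) stopped reactions before streptavidin flashplate capture.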

PRMT5-MEP50 = PRMT5-MEP50 (Homo sapiens, UniProt O14744); assay: PRMT5 assay (3H-SAM flashplate scintillation); assay type: biochemical; conditions: PRMT5-MEP50 2.5 nM, histone H4 peptide 100 nM, 3H-SAM 250 nM, 60 min
PRMT5-MEP50, sequence (O14744 whole entry): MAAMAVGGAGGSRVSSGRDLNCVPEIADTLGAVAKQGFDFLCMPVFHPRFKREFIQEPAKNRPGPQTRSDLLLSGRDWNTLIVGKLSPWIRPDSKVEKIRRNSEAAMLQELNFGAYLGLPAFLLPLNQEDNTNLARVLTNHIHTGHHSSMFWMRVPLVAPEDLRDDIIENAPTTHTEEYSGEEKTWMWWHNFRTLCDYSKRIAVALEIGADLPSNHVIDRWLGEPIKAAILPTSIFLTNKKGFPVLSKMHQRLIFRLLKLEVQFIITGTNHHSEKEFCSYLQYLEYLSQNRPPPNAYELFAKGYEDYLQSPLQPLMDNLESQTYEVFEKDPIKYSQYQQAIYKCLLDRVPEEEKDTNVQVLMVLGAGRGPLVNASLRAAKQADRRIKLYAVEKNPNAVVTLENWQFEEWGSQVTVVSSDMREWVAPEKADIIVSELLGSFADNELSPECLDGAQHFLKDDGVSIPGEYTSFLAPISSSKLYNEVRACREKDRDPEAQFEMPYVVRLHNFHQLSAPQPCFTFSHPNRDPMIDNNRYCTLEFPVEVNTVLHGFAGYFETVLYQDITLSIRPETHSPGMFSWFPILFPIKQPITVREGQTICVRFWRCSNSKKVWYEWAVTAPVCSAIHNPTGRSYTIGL
PRMT5-MEP50, sequence (Q9BQA1 whole entry partner): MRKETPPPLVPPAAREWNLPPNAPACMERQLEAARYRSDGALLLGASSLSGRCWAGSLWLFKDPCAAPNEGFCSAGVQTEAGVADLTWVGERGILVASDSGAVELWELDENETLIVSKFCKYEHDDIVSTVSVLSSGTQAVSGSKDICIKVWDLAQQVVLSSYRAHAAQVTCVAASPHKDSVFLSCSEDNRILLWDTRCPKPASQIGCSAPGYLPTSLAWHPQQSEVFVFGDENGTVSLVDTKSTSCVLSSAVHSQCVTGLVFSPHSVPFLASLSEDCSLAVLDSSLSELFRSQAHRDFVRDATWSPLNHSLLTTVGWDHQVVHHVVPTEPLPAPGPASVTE
Outline: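 Radiometric methyltransferase read-out: after 60 min reaction, excess unlabelled SAM (15 μM) stops turnover and biotinylated H4 peptide (100 nM) carrying 3H-methyl from 250 nM 3H-SAM is captured on streptavidin flashplates (2 h, 25° C) for scintillation counting. Enzyme, 2.5 nM PRMT5-MEP50, was preincubated 5 min with compound in pH 8.0 Tris buffer with DTT and Tween.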

METTL1/WDR4 = METTL1/WDR4 (Homo sapiens, UniProt Q9UBP6); assay: METTL1 assay (3H-SAM flashplate scintillation); assay type: biochemical; conditions: METTL1/WDR4 6.25 nM, RNA 25 nM, 3H-SAM 60 nM, 20 min; read-out: METTL1 IC50
METTL1/WDR4, sequence (Q9UBP6 whole entry, species assumed): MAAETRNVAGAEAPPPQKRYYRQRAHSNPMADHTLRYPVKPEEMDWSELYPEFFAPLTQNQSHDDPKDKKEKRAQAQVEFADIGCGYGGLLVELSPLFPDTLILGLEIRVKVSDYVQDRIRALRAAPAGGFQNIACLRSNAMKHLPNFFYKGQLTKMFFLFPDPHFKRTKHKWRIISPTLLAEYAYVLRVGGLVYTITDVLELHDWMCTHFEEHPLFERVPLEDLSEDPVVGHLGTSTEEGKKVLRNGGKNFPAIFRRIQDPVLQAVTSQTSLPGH
METTL1/WDR4, sequence (P57081 whole entry partner, species assumed): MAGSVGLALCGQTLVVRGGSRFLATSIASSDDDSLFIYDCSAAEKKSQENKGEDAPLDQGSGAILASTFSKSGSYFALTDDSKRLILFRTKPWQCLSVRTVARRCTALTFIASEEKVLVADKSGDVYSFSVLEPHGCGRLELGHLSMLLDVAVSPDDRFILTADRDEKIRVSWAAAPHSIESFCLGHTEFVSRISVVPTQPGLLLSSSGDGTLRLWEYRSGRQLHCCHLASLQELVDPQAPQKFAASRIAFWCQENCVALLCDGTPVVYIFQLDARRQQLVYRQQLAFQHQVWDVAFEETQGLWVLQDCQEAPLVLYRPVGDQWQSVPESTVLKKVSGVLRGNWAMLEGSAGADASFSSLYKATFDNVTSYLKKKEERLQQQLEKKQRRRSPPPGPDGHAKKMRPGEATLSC
Description: (§1) Assays were performed in a 25 μl-volume in 384-well V-bottom polypropylene microplates (Greiner Bio-One, cat. No. 781280) at ambient temperature. Optimized 1× assay buffer was 20 mM HEPES pH 7.5, 50 mM KCl, 250 μM MgCl2, 1 mM DTT, 0.01% Tween, 0.01% BSG, 0.004 U/μl RNAseOUT (cat. No. 10777019, ThermoFisher Scientific, Waltham, Mass.). For compound screening METTL1/WDR4 (final concentration, f.c.=6.25 nM) was added using a Multidrop Combi (ThermoFisher Scientific, Waltham, Mass.) and preincubated for 5 min. Reactions were started by adding 3′ biotinylated RNA ([…]-biotin) (f.c.=25 nM) and 3H-SAM (f.c.=60 nM) substrates. Reactions proceeded for 20 minutes and were quenched with excess non-radioactive SAM (f.c.=15 μM). The reactions were then transferred to streptavidin-coated flashplates and incubated for 2 hours at 25° C. Following two washing cycles with 0.1% Tween-20, the plates were sealed and read on a TopCount (PerkinElmer, Waltham, Mass.) plate-based scintillation counter. For determination of kinetic parameters, reaction times were optimized so that measurements were taken during the initial velocity phase of the reaction.

METTL16 = molecular target: T1, METTL16 (Homo sapiens, UniProt Q86W50); assay: METTL16 assay (3H-SAM flashplate scintillation); assay type: biochemical; conditions: METTL16 100 nM, RNA 50 nM, 3H-SAM 200 nM, SAM 800 nM, 20 min
T1 sequence (Q86W50 1-562): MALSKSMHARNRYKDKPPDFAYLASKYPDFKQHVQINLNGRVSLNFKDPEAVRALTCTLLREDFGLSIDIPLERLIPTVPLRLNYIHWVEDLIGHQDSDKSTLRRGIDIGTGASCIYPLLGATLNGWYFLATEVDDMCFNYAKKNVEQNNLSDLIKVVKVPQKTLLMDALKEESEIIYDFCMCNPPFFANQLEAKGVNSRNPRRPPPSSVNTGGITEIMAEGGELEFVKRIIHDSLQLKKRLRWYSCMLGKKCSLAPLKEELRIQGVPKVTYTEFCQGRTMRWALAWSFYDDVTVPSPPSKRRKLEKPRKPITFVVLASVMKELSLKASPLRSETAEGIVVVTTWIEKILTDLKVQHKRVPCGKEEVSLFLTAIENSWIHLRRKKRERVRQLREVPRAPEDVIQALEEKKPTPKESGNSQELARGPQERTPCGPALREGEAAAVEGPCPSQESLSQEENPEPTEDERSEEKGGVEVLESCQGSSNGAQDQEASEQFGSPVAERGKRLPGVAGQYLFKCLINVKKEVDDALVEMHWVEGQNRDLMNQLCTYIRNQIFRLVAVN
Description: as §1, with “KCl,” for “KCl, 250 μM MgCl2,”, “METTL16” for “METTL1/WDR4”, “f.c.=100” for “f.c.=6.25”, “(f.c.=50 nM), 3H-SAM (f.c.=200” for “(f.c.=25”, “non-radiolabeled SAM (f.c.=800” for “3H-SAM (f.c.=60”, “(f.c.=100” for “(f.c.=15”

MOLM-13 cells = assay: MOLM-13 96 Hour cell proliferation assay (Cell Titer-Glo); assay type: cell-based; conditions: Homo sapiens
Description: MOLM-13 96 Hour Cell Proliferation Assay
MOLM-13 (DSMZ) cells were seeded at 600 cells per well in a volume of 44 μL in a Greiner Bio-One CELLSTAR™ 384 Well Polystyrene Cell Culture clear bottom microplate in RPMI 1640 media containing 10% fetal bovine serum using a Multidrop Combi (ThermoFisher Scientific). Cells were incubated overnight at 37° C. in a humidified tissue culture incubator. To prevent evaporation or to reduce edge effect, add 50 μL or more H2O to an empty plate, cover, and place on top of the cell plates. The Mosquito® HTS Liquid Handler was used to make a compound/media intermediate plate by aliquoting 1 μL of compound from the initial compound dilution plate (concentrations ranging from 10.0 mM to 38.0 nM in 100% DMSO) into Bio-One 384-well polypropylene conical bottom microplate containing 49 μL of media containing the appropriate serum (50-fold dilution, 2% DMSO, compound concentrations ranging from 200.0 μM and […]). The Apricot liquid handling system was used to transfer 6.2 μL compounds from the intermediate plate into the seeding plate containing 44 μL cells (8-fold dilution spanning concentrations 25.0 μM to […], 0.25% DMSO final), and placed in a humidified tissue culture incubator at 37° C. After 96 hours, 25 μL of Cell Titer-Glo reagent (Promega) was added to each well using an Integra liquid handling system. The plate was protected from light using TopSeal-A (Black) film over the entire plate, added White Bottom seal film on the bottom of the entire plate for a better reading on the Envision, and placed on an IKA plate shaker for at 300 rpm for 10 minutes at room temperature. The plate was read on an EnVision plate reader (Perkin Elmer) using the Ultra Sensitive Luminescence protocol. Data analysis was performed by normalizing the raw luminescence units to an average of the positive control values for staurosporine (100% cell death) and the negative control values for DMSO (0% cell death). An IC50 was calculated using a 4-parameter logistic nonlinear regression model in GraphPad Prism.

METTL3/METTL14, sequence (Q86U44 whole entry, species assumed): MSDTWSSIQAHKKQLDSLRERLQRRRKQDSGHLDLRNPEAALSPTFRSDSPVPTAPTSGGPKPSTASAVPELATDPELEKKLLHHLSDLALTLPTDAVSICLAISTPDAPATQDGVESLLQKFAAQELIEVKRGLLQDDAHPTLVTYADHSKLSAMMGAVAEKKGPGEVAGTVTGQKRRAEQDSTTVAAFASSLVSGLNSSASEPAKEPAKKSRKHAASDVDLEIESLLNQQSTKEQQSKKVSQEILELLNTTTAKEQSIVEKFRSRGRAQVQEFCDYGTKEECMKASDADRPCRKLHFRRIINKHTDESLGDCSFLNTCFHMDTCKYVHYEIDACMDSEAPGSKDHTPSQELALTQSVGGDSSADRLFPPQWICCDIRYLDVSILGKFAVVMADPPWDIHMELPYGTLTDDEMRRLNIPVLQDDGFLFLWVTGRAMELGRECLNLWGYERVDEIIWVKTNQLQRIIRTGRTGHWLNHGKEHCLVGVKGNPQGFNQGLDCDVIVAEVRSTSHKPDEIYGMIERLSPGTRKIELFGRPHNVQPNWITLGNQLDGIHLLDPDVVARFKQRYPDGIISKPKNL
METTL3/METTL14, sequence (Q9HCE5 whole entry partner, species assumed): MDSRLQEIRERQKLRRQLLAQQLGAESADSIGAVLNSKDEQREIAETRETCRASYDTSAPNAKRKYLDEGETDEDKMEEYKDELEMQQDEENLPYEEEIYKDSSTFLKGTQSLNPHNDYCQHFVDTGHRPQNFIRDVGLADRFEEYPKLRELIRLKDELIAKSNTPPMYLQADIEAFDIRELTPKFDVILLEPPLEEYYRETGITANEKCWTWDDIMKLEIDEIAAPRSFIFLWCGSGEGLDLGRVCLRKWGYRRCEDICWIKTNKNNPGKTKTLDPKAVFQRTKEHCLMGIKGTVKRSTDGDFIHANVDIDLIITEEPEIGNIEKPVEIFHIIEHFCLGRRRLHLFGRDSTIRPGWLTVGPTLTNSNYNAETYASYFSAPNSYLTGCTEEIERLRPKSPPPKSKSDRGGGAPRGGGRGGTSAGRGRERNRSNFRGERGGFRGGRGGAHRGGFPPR

Row | IC50 (MOLM-13 cells) [nM] | SMILES | IC50 (METTL3/METTL14) [nM] | IC50 (PRMT5-MEP50) [nM] | IC50 (METTL1/WDR4) [nM] | IC50 (METTL16) [nM]
1 |  | CCc1ncc(-n2cc(Cl)c3c(N)ncnc32)cc1COc1ccc2ccc(NC)nc2c1 [Compound I-68] | 10 to 100 | > 1000 | > 1000 | > 1000
2 |  | CNc1ccc2ccc(CN(C)c3cccc(-n4cc(Br)c5c(N)ncnc54)c3)cc2n1 [Compound I-69] | > 1000 | > 1000 | > 1000 | > 1000
3 |  | CNc1ccc2ccc(OCc3cccc(-c4c[nH]c5c(N)ncnc45)c3)cc2n1 [Compound I-71] | 10 to 100 | > 1000 | > 1000 | > 1000
4 |  | CNc1ccc2ccc(CNc3cccc(-n4cc(Br)c5c(N)ncnc54)c3)cc2n1 [Compound I-72, 7-{[(3-{4-amino-5-bromo-7H-pyrrolo[2,3-d]pyrimidin-7-yl}phenyl)amino]methyl}-N-methylquinolin-2-amine] | 100 to 1000 | > 1000 | > 1000 | > 1000
5 |  | CNc1ccc2ccc(OCc3cccc(-n4cc(C5CC5)c5c(N)ncnc54)c3)cc2n1 [Compound I-73] | 10 to 100 | > 1000 | > 1000 | > 1000
6 |  | CNc1ccc2ccc(OCc3cc(F)cc(-n4cc(Cl)c5c(N)ncnc54)c3)cc2n1 [Compound I-76] | 10 to 100 | > 1000 | > 1000 | > 1000
7 |  | Nc1ccc2ccc(OCc3cccc(-n4cc(Cl)c5c(N)ncnc54)c3)cc2n1 [Compound I-77] | > 1000 | > 1000 | > 1000 | > 1000
8 |  | CNc1ccc2ccc(OCc3cccc(-n4ccc5c(N)ncnc54)c3)cc2n1 [Compound I-78] | 10 to 100 | > 1000 | > 1000 | > 1000
9 |  | CNc1ccc2ccc(OCc3cccc(-n4cc(CC5CC5)c5c(N)ncnc54)c3)cc2n1 [Compound I-79] | 10 to 100 | > 1000 | > 1000 | > 1000
10 |  | CNc1ccc2ccc(OCc3cc(-n4cc(Cl)c5c(N)ncnc54)ccc3F)cc2n1 [Compound I-80] | 10 to 100 | > 1000 | > 1000 | > 1000
11 |  | CNc1ccc2ccc(OCc3cc(O)cc(-n4cc(Cl)c5c(N)ncnc54)c3)cc2n1 [Compound I-81] | 10 to 100 | > 1000 | > 1000 | > 1000
12 |  | CNc1ccc2ccc(OCc3cccc(-n4cc(Cl)c5c(N)ncnc54)n3)cc2n1 [Compound I-84] | 10 to 100 | > 1000 | > 1000 | > 1000
13 |  | CNc1ccc2ccc(OCc3ccnc(-n4cc(Cl)c5c(N)ncnc54)c3)cc2n1 [Compound I-85] | 100 to 1000 | > 1000 | > 1000 | > 1000
14 |  | CNc1ccc2ccc(OCc3cccc(-n4cc(C5CCCC5)c5c(N)ncnc54)c3)cc2n1 [Compound I-86] | 10 to 100 | > 1000 | > 1000 | > 1000
15 |  | CNc1ccc2ccc(OCc3cc(C#N)cc(-n4ccc5c(N)ncnc54)c3)cc2n1 [Compound I-119] | 100 to 1000 | > 1000 | > 1000 | > 1000
16 |  | C[C@H]1CCN1c1ccc2ccc(OCc3cncc(-n4cc(C5CCCC5)c5c(N)ncnc54)c3)cc2n1 [Compound I-125] | 10 to 100 | > 1000 | > 1000 | > 1000
17 | < 1000 | CCCc1cc(N)c2ccc(CCc3cncc(-n4cc(-c5ccn(C)n5)c5c(N)ncnc54)c3)cc2n1 [Compound I-131] | < 10 |  |  | 
18 | < 1000 | CCc1cc(NCCOC)c2ncc(CCc3cncc(-n4cc(-c5ccn(C)n5)c5c(N)ncnc54)c3)cc2n1 [Compound I-132] | < 10 |  |  | 
19 | < 1000 | CCNc1ccc2ccc(OCc3cncc(-n4cc([C@H]5CCCO5)c5c(N)ncnc54)c3)cc2n1 [Compound I-134] | < 10 |  |  | 
20 | < 1000 | CCc1cc(NCCOC)c2ccc(OCc3cncc(-n4cc([C@@H]5CCCO5)c5c(N)ncnc54)c3)cc2n1 [Compound I-141] | < 10 |  |  | 
21 | < 1000 | CCc1cc(N2CCOCC2)c2ccc(OCc3cncc(-n4cc([C@H]5CCCO5)c5c(N)ncnc54)c3)cc2n1 [Compound I-142] | 10 to 100 |  |  | 
22 | < 1000 | CCc1cc(N2CCOCC2)c2ccc(OCc3cncc(-n4cc([C@@H]5CCCO5)c5c(N)ncnc54)c3)cc2n1 [Compound I-143] | < 10 |  |  | 
23 | < 1000 | Nc1ncnc2c1c([C@H]1CCCO1)cn2-c1cncc(COc2ccc3ccc(N4CCC4)nc3c2)c1 [Compound I-144] | < 10 |  |  | 
24 | < 1000 | CCNc1ccc2ccc(OCc3cncc(-n4cc([C@@H]5CCCO5)c5c(N)ncnc54)c3)cc2n1 [Compound I-146] | < 10 |  |  | 
25 |  | CNc1ccc2ccc(OCc3cccc(-n4ccc5c(N)ncnc54)c3F)cc2n1 [Compound I-226] | 10 to 100 | > 1000 | > 1000 | > 1000

From US20220372040A1, “METTL3 MODULATORS” (Accent Therapeutics, Inc., priority 2020, published 2022)
